Peptide text beside a SMILES is read from it.
How the values were obtained:
Assay type in all cases: cell-based
[1] = system: interleukin-6; assay: Suppression of LPS-induced IL-6 expression in RAW 264.7 macrophage cells (RT-PCR, Real-Time PCR); conditions: pretreated 100 nM for 30 min, LPS two hours, compared to untreated sample
Description: First, RAW 264.7 macrophage cells were purchased from American Type Culture Collection (ATCC; Manassas, Va.), and were culture at a temperature of 37° C., under 5% CO2 atmosphere, using 10% Fetal Bovine Serum (FBS) and Dulbecco's Modified Eagle's Medium (DMEM) containing 1% penicillin/streptomycin.
The cultured RAW 264.7 macrophage cells were divided into a 6-well cell culture plate. After 24 hours, the cells were pretreated with compound 1.1 (SEQ ID NO: 2), compound 1.2, and smaducin-6, respectively, in a concentration of 100 nM for 30 min, and further treated with lipopolysaccharides (LPS) for two hours. These cells were collected using TRIzol® and the RNA was extracted. From 2 μg of the extracted RNA, cDNAs (complementary deoxyribonucleic acids) were synthesized and reverse transcription polymerase chain reactions (RT-PCR) and real-time polymerase chain reactions (Real-Time PCR) were performed. Samples from the RT-PCR were confirmed by electrophoresis on agarose gels and quantified using densitometer. A glyceraldehyde 3-phosphate dehydrogenase (GAPDH) gene was used as a loading control for the interleukin-6 gene.
RAW 264.7 macrophage cells were treated with varying concentrations of compound 1.1 (SEQ ID NO: 2) from 50 pM to 500 nM for 30 minutes, and treated with 100 ng/mL of LPS for two hours.

[2] = system: inflammatory signaling pathway protein complex mediated by MyD88 or RIP1; assay: Immunoprecipitation of inflammatory signaling pathway protein complex in LPS-treated RAW264.7 cells; conditions: pretreated, then LPS
Text: Specifically, using antibodies corresponding to proteins which relate to the formation of Toll-like receptors (TLRs) signaling pathway protein complex (for example, IRAK1, TRAF6, MyD88, RIP1 and Pellino-1), disruption of the formation of inflammatory signaling pathway protein complexes was affirmed by immunoprecipitation. As reference control, a relative amount of expression of β-actin from the total cell lysate was compared and presented using Western blot.
RAW264.7 macrophage cells were individually retreated with compound 1.1 (SEQ ID NO: 2) and compound 1.2, and smaducin-6, and further treated with LPS. These RAW264.7 macrophage cells were collected, lysed in a lysis butter (PBS containing 0.5% Triton X-100, 20 mM HEPES (pH 7.4), 150 mM NaCl, 12.5 mM β-glycerol phosphate, 1.5 mM MgCl2, 10 mM NaF, 2 mM DTT, 1 mM Na3O4V, 2 mM EGTA, and 1 mM Protease Inhibitor (PMSF)), and centrifuged at 13000 rpm for 10 minutes. For immunoprecipitation assays, the supernatant was incubated at 4° C. for 12 hours, with protein-A agarose beads and the antibodies corresponding to the above proteins, and the beads were subsequently washed three times with the lysis buffer. The immunoprecipitated substances were dissociated from the beads with addition of 2× sample buffer, and were boiled. The prepared samples were loaded on SDS-polyacrylamide gel (FIG. 7).

[3] = system: NF-κB; assay: 5×NF-κB-Luc reporter luciferase assay in LPS-treated RAW 264.7 cells
Description: Specifically, 5×NF-κB-Luc reporter plasmid was transfected into RAW 264.7 cells using Effectene (Qiagen, USA). The transfected cells were pretreated with 100 nM of compound 1.1 (SEQ ID NO: 2) for 30 minutes, and further treated with LPS (100 ng/ml) for two hours, and luciferase activity in the cells was measured (FIG. 4 depicts a graph showing relative inhibition activities of compound 1.1 (SEQ ID NO: 2) and compound 1.2 to NF-κB activation). When the cells were treated with compound 1.1 (SEQ ID NO: 2) and compound 1.2 according to the present invention, activation of NF-κB, which was induced by LPS, was inhibited (FIG. 4).
In addition, 5×NF-κB-Luc reporter plasmid was transfected into RAW 264.7 macrophage cells and treated with compounds of the present invention, as described above. After 24 hours of the transfection, the cells were pretreated with DMSO (control), compound 1.1 (SEQ ID NO: 2), reference compound 1 (SEQ ID NO: 16) (compound where palmitic acid is removed from compound 1.1 (SEQ ID NO: 2)), and smaducin-6 were treated at various concentrations of 100 pM, 1 nM, and 100 nM for 30 minutes, and then the cells were treated with 100 ng/ml of LPS for two hours.
Specifically, 5×NF-κB-Luc reporter plasmid, SBE-Luc reporter plasmid, and BRE-Luc reporter plasmid were individually transfected into Raw 264.7 macrophage cells. After 24 hours, the cells transfected with the NF-κB-Luc reporter plasmid were treated with 100 ng/mL of LPS, the cells transfected with the SBE-Luc reporter plasmid were treated with 5 ng/mL of TFG-β1, and the cells transfected with the BRE-Luc reporter plasmid were treated with 100 ng/mL of BMP6 for two hours.
As described in Example 2.3, 5×NF-κB-Luc reporter plasmid was transfected into RAW 246.7 macrophage cells. After 24 hours, the cells transfected with NF-κB-Luc reporter plasmid were pretreated with compound 1.1 (SEQ ID NO: 2) (100 nM), interleukin-1-receptor-associated-kinase-1/4 inhibitor (IRAK1/4) inhibitor (25 μM, CAS 509093-47-4), and smaducin-6 (100 nM) for 30 minutes, and then further treated with LPS (100 ng/ml) for 2 hours. Subsequently, luciferase activities in the cells were measured.

[4] = system: MAPK signaling pathway proteins (ERK1/2, JNK, p38); assay: Western blot of MAPK signaling pathway protein phosphorylation in LPS-treated RAW 246.7 cells; conditions: for phosphorylation of the MAPK signaling pathway proteins (ERK1/2, JNK, p38): 100 nM for 30 minutes, LPS 0, 0.5, 1 and 2 hours
Description: RAW 246.7 macrophage cells were pretreated with compound 1.1 (SEQ ID NO: 2), compound 1.2 and reference compound 1 (SEQ ID NO: 16) at a concentration of 100 nM for 30 minutes and then further treated with LPS for 0 hour, 0.5 hour, 1 hour and 2 hours. […] Changes of the concentration upon phosphorylation of each protein were measured by immunoblotting using anti-phosphorylation antibodies.
Specifically, RAW 246.7 macrophage cells were pretreated with DMSO, compound 1.1 (SEQ ID NO: 2) (100 nM), IRAK1/4 inhibitor (25 μM), and smaducin-6 (100 nM) for 30 minutes, and then further treated with LPS (100 ng/ml) for two hours.

[5] = system: AP-1; assay: AP-1-Luc reporter luciferase assay in LPS-treated RAW 246.7 cells; conditions: 25 μM for 30 minutes, LPS 100 ng/ml 2 hours
Description: RAW 246.7 macrophage cells were transfected with AP-1-Luc reporter plasmid as described in Example 2.3. After 24 hours, the transfected cells with AP-1-Luc reporter plasmid were pretreated with compound 1.1 (SEQ ID NO: 2) (100 nM), IRAK1/4 inhibitor (25 μM), and smaducin-6 (100 nM) for 30 minutes, and then further treated with LPS (100 ng/ml) for 2 hours.

[6] = biological target: T1, inflammatory signaling pathway complex mediated by MyD88 and RIP1 (Mus musculus, UniProt P22366+Q60855); assay: Immunoprecipitation/immunoblot of inflammatory signaling pathway complex in LPS-treated BMDM cells; conditions: 100 pM, 1 nM, 100 nM, then 100 ng/mL LPS
T1 construct: endogenous in cells; host or cells: bone-marrow-derived macrophage (BMDM) cells
Description: Bone-marrow-derived macrophage (BMDM) cells were individually pretreated with compound 1.1 (SEQ ID NO: 2), reference compound 1 (SEQ ID NO: 16), and smaducin-6 at various concentrations of 100 pM, 1 nM, and 100 nM, and then further treated with 100 ng/mL of LPS.

T1 sequence (P22366 whole entry): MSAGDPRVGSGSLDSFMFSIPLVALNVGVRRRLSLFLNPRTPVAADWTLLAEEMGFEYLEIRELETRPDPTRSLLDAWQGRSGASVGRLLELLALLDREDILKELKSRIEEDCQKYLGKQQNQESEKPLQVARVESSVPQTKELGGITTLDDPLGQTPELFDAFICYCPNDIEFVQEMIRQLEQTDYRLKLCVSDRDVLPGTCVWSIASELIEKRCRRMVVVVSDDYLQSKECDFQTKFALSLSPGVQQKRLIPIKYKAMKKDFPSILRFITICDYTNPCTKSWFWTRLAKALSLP
T1 sequence (Q60855 whole entry): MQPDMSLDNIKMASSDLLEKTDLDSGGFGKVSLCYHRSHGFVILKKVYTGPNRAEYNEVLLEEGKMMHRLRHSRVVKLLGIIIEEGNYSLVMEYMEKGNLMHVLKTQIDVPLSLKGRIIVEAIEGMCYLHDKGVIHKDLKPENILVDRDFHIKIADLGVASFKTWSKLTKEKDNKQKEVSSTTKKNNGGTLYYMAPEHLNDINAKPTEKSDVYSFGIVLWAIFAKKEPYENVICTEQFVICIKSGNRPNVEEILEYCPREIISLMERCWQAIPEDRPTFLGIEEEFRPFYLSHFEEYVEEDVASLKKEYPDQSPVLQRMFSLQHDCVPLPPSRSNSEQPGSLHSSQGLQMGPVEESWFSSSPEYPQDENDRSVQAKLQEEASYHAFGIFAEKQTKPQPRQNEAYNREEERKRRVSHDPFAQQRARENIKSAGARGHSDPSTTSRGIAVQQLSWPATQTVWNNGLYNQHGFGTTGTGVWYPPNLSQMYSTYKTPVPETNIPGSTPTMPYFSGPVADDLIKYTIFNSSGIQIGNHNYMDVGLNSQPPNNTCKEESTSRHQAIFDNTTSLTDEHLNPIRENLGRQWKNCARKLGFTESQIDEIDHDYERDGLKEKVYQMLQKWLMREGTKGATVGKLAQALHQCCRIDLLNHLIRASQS

`CCCCCCCCCCCCCCCC(=O)N1CCC[C@H]1C(=O)NCC(=O)N[C@@H](Cc1ccc(O)cc1)C(=O)O` [compound 1.2, (S)-3-(4-hydroxyphenyl)-2-(2-((S)-1-palmitoylpyrrolidine-2-carboxamido)acetamido)propanoic acid] (HELM PEPTIDE1{[CCCCCCCCCCCCCCCC(=O)[*:2]].P.G.Y}$$$$V2.0) was tested, and the “expression of interleukin-6 induced by LPS treatment” value [1] was “suppressed”, the “formation of inflammatory signaling pathway protein complex mediated by MyD88 or RIP1” value [2] was “disrupted” and the “activation of NF-κB induced by LPS (luciferase activity)” value ([3]; 100 nM for 30 minutes, LPS 100 ng/ml two hours) was “inhibited”. For the same compound, the “phosphorylation of the MAPK signaling pathway proteins (ERK1/2, JNK, p38)” value [4] was “did not inhibit phosphorylation”.
With `O=C(Nc1nc2ccccc2n1CCN1CCOCC1)c1cccc([N+](=O)[O-])c1` [IRAK1/4 inhibitor, reference compound] the “AP-1-Luc luciferase activity (MAPK signaling pathway)” value [5] was “inhibited MAPK signaling pathway”, the “NF-κB activation (luciferase activity)” value ([3]; 25 μM for 30 minutes, LPS 100 ng/ml 2 hours) was “inhibited” and the “MAPK signaling pathway / phosphorylation of ERK, JNK, p38” value ([4]; 25 μM for 30 minutes, LPS 100 ng/ml two hours) was “suppressed at least one or more of MAPK signaling pathways”.
For “reference compound 1: compound where palmitic acid is removed from compound 1.1 (SEQ ID NO: 2) (PPGY) [reference compound]”, the “inhibition of the activity of NF-κB induced by LPS, dose dependence” value ([3]; 100 pM, 1 nM, 100 nM for 30 minutes, LPS 100 ng/ml two hours) was “not inhibited in dose dependent manner”, the “phosphorylation of the MAPK signaling pathway proteins (ERK1/2, JNK, p38)” value [4] was “did not inhibit phosphorylation” and the “formation of inflammatory signaling pathway complex mediated by MyD88 and RIP1” value [6] was “formed the inflammatory signaling pathway complex”.

Source: patent US11365215B2, “Method for preventing, improving, or treating inflammatory bowel disease” (Research & Business Foundation Sungkyunkwan University, priority 2015, dated 2022)
